Assay results published in US7144733B2, “Bio-synthetic photostimulators and methods of use” (Sloan-Kettering Institute for Cancer Research, priority 2001, dated 2006).
Entries after “also recorded” stand apart in the source; their conditions may differ.

Tests used:
Xenopus oocytes = test: Light-evoked photocurrents in voltage-clamped Xenopus oocytes expressing Drosophila phototransduction proteins; format: cell-based
Method: (§1) Synthetic all-trans retinal (Sigma) was diluted, from a 100-mM stock in DMSO, to 40 μM in the appropriate extracellular recording solution (see below) and allowed to bind to NinaE for 15 min in the dark. A mechanically shuttered (Uniblitz, Vincent Associates) Lambda DG-4 rapid wavelength changer (Sutter Instruments) delivered <2 mW of stimulating light without ultraviolet and infrared (E400LP, Chroma; Hot Mirror, Newport) components through 20×/0.4 (oocytes) or 40×/0.8 W (neurons) Zeiss Achroplan objectives. In some experiments, a short pre-illumination with red light (E600LP plus HQ625/40, both from Chroma) preceded the white-light stimulus. Light source and shutter were controlled through pClamp 8.0 (Axon Instruments) and MetaFluor 4.5 (Universal Imaging).
Stage VI oocytes were microinjected with the specified mRNA mixtures, which were adjusted to keep the doses of individual messages constant at 2–4 fmol/oocyte. Photocurrents were recorded at −80 mV with a two-electrode voltage-clamp amplifier (Axoclamp-2B, Axon Instruments) 2–4 days after mRNA injection. Electrodes (2–3 MΩ) were filled with 3 M KCl; the extracellular recording solution (Barth's Saline) contained, in mM, 87.5 NaCl, 2 KCl, 2.4 NaHCO3, 2 CaCl2, 1 MgCl2, 5 Tris-HCl, pH 7.2. Signals were externally amplified (CyberAmp 380, Axon Instruments) before digitization at 100 Hz (Digidata 1200, Axon Instruments). To block IP3-sensitive Ca^2+ stores where indicated, 20 μM xestospongin C (Gafni et al., 1997; Calbiochem) was present throughout the experiment, beginning with the retinal load.
Unliganded NinaE in the membrane of voltage-clamped oocytes was reconstituted in the dark with 40 μM synthetic all-trans retinal, to form a metarhodopsin-like intermediate that could be further photoconverted (Hillman et al., 1983; Kiselev and Subramaniam, 1994; Ranganathan and Stevens, 1995) to rhodopsin. […]

hippocampal neurons = test: Photostimulation of chARGed hippocampal neurons in primary culture, whole-cell current clamp; format: cell-based; settings: 50 μM AP-5 plus 10 μM CNQX together; n=5 neurons
Method: as §1
Hippocampal neurons obtained from E19 rats were grown in dissociated cultures (Yuste, Miller et al. “Synapto-pHluorins: chimeras between pH-sensitive mutants of green fluorescent protein and synaptic vesicle membrane proteins as reporters of neurotransmitter release,” Methods Enzymol 522–46 (2000)) and transfected with a calcium phosphate precipitate (pH 7.08) formed from a 1:1 mixture of CsCl-banded pChARGe-1 and pChARGe-2. Neurons were exposed to 4.2 μg/cm^2 of precipitated DNA for 20 minutes. Transfections were done on day 8 after plating, recordings on days 6–10 after transfection. Neurons were identified under DIC and epifluorescence illumination (to distinguish transfected from untransfected cells; FIG. 3) and placed under whole-cell current clamp before reconstitution of NinaE with retinal. Patch pipettes (˜2.5 MΩ) contained, in mM, 120 K-gluconate, 10 KCl, 5 ATP, 0.3 GTP, and 10 K-HEPES, pH 7.2. The extracellular recording solution contained, in mM, 119 NaCl, 2.5 KCl, 2 CaCl2, 1 MgCl2, 30 glucose, 25 Na-HEPES, pH 7.4. Membrane potentials were recorded with an Axoclamp-2B amplifier (Axon Instruments) in bridge mode and digitized at 5 kHz (Digidata 1200, Axon Instruments).
For intracellular recordings of light-evoked electrical activity, neurons were placed under whole-cell current clamp before reconstitution of NinaE with retinal. […] Exposure to white light increased the frequency of action potentials dramatically (FIGS. 4, A–D, and FIG. 5). Peak firing frequencies of 7.5 Hz (evaluated in sliding 2-s windows), equal to those generated by the direct injection of 200–250 pA of sustained depolarizing current into transfected and untransfected neurons, appeared after latency periods of a few hundred ms to several tens of s (n=18 neurons). […]

C1CCC[C@H]2CCCN3CC[C@@H](CCCCCC[C@@H]4CCCN5CC[C@@H](CC1)O[C@@H]45)O[C@@H]23 [xestospongin C]
light-evoked current responses in the presence of xestospongin C (Xenopus oocytes; 20 μM xestospongin C present throughout, oocytes expressing 10 photoreceptor proteins, n=5 oocytes): inhibited

CC1=C(/C=C/C(C)=C/C=C/C(C)=C/C=O)C(C)(C)CCC1 [all-trans retinal]
dependence of light-evoked current responses on reconstitution of NinaE with retinal (Xenopus oocytes; 40 μM all-trans retinal, 15 min in the dark, n=9 oocytes): required | photocurrent over time after a single retinal load, in the absence of exogenous retinal (Xenopus oocytes; NinaE reconstituted with 40 μM all-trans retinal for 15 min, then retinal-free perfusion for hours, n=8 oocytes): no attenuation

N#Cc1cc2c(cc1[N+](=O)[O-])=NC(=O)C(=O)N=2 [CNQX, 6-cyano-7-nitroquinoxaline-2,3-dione]
EPSPs in the membrane potential record under glutamate receptor block (hippocampal neurons): vanished; also recorded: elimination | light-induced action potentials under glutamate receptor block (hippocampal neurons): persisted

NC(CCCP(=O)(O)O)C(=O)O (racemic) [AP-5, D,L-2-amino-5-phosphonovaleric acid]
EPSPs in the membrane potential record under glutamate receptor block (hippocampal neurons): vanished; also recorded: elimination | light-induced action potentials under glutamate receptor block (hippocampal neurons): persisted
